What follows are compounds tested against Recombinant Human ENPP-1 Protein (Homo sapiens (Human), UniProt P22413) (assay: ENPP1 Inhibition Assay). Conditions: substrate thymidine 5′-monophosphate p-nitrophenol ester, absorbance at 405 nm.
Format: biochemical
Description: 1. ENPP1 Inhibition Assay
Materials: • Assay Buffer: 1 mM CaCl2, 0.2 mM ZnCl2, 50 mM Tris, pH 9.0 • Substrate: 8 mM Thymidine 5′-monophosphate p-nitrophenol ester sodium salt (Sigma Cat # T4510) • Enzyme: 5 ng/μL Recombinant Human ENPP-1 Protein (R&D Cat #6136-EN-010) DMSO • 96-well clear assay plates
An eight point serial dilution of drugs was prepared in 10× in assay buffer with the final assay concentrations starting at 10 μM, 3 μM, 1 μM, 0.3 μM . . . 0 μM. A dilution of DMSO was included as a control. The assay plate was set up as follows with each well in duplicate: 81 μL assay buffer+10 μL ENPP1 inhibitor or DMSO+5 μL Substrate+4 μL Enzyme. Both the enzyme and substrate were added to opposite sides of the well to ensure that there was no interaction until all wells had both components. The plate was then centrifuged gently for 10 seconds, followed by an incubation at 37° C. for 45 minutes. The reaction was quantified by measuring absorbance at 405 nm using the Envision.
IC50 values are determined using GraphPad Prism 5 software. The data were entered as an X-Y plot into the software as percent inhibition for each concentration of the drug. The concentration values of the drug were log transformed and the nonlinear regression was carried out using the “sigmoidal dose-response (variable slope)” option within the GraphPad software to model the data and calculate IC50 values. The IC50 values reported are the concentration of drug at which 50% inhibition was reached.

Sequence of Recombinant Human ENPP-1 Protein (P22413 whole entry): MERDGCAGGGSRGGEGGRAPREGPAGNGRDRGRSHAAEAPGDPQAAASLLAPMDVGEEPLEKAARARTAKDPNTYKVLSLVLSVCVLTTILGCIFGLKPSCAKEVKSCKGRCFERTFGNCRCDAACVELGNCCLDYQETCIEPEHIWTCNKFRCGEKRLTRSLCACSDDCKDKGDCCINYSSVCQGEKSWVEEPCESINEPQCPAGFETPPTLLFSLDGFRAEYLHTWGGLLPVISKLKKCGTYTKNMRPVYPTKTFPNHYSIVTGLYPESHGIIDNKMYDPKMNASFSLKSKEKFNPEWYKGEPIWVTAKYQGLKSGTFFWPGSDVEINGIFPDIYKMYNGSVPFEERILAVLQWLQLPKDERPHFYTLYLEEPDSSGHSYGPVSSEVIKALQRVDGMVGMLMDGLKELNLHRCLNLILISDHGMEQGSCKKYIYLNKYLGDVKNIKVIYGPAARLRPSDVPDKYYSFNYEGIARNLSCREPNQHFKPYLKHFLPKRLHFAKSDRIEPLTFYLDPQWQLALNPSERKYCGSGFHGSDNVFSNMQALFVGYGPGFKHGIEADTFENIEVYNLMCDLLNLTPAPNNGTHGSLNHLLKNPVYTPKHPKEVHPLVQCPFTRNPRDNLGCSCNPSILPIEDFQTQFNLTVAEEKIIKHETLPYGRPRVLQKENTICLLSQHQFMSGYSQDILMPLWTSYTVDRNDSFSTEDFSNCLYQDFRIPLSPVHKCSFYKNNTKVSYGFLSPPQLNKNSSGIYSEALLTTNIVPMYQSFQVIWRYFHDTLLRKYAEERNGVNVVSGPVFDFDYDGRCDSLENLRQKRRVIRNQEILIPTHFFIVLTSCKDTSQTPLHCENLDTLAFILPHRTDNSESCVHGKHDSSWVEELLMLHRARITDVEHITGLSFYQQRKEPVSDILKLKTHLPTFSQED

Going from COc1ccc(NC(=O)CSc2nc3cc(Cl)ncc3[nH]2)cc1OC [Compound 3, 2-((6-Chloro-3H-imidazo[4,5-c]pyridin-2-yl)thio)-N-(3,4-dimethoxyphenyl)acetamide] to COc1cc(NC(=O)CSc2nc3cc(Cl)ncc3[nH]2)ccc1OC(F)F [Compound 29, 2-((6-Chloro-1H-imidazo[4,5-c]pyridin-2-yl)thio)-N-(4-(difluoromethoxy)-3-methoxyphenyl)acetamide], the IC50 rises from 0.58 µM to 1.16 µM (2-fold).

Going from O=C(CSc1nc2cc(Cl)ncc2[nH]1)Nc1ccc2c(c1)OCO2 [Compound 7, N-(benzo[d][1,3]dioxol-5-yl)-2-((6-chloro-1H-imidazo[4,5-c]pyridin-2-yl)thio)acetamide] to Cc1cncc2[nH]c(SCC(=O)Nc3ccc4c(c3)OCO4)nc12 [Compound 10, N-(benzo[d][1,3]dioxol-5-yl)-2-((7-methyl-1H-imidazo[4,5-c]pyridin-2-yl)thio)acetamide], the IC50 falls from over 50 µM to 50 µM. The second is the more potent here.

Compared with COc1ccc(NC(=O)CSc2nc3c(C)cncc3[nH]2)cc1OC [Compound 9, N-(3,4-dimethoxyphenyl)-2-((7-methyl-1H-imidazo[4,5-c]pyridin-2-yl)thio)acetamide], COc1ccc(NC(=O)CSc2nc3c(C)cncc3[nH]2)cc1O [Compound 16, N-(3-hydroxy-4-methoxyphenyl)-2-((7-methyl-1H-imidazo[4,5-c]pyridin-2-yl)thio)acetamide] is 1.9-fold lower in IC50: 4.46 µM for the first, 2.29 µM for the second. The second is the more potent here.

Compared with COc1ccc(NC(=O)C(C)Sc2nc3cnc(Cl)cc3[nH]2)cc1OC (centres unmarked) [Compound 14, 2-((6-Chloro-1H-imidazo[4,5-c]pyridin-2-yl)thio)-N-(3,4-dimethoxyphenyl)propanamide], COc1ccc(NC(=O)C(C)Sc2nc3cnc(C(F)(F)F)cc3[nH]2)cc1O (centres unmarked) [Compound 42, N-(3-Hydroxy-4-methoxyphenyl)-2-((6-(trifluoromethyl)-3H-imidazo[4,5-c]pyridin-2-yl)thio)propanamide] is 3.2-fold higher in IC50: 3.52 µM for the first, 11.3 µM for the second. The first is the more potent here.

Going from COc1cc(NC(=O)CSc2nc3c(C)cncc3[nH]2)ccc1O [Compound 18, N-(4-hydroxy-3-methoxyphenyl)-2-((7-methyl-3H-imidazo[4,5-c]pyridin-2-yl)thio)acetamide] to COc1ccc(NC(=O)CSc2nc3c(C)c(C#N)ncc3[nH]2)cc1OC [Compound 77, 2-((6-Cyano-7-methyl-3H-imidazo[4,5-c]pyridin-2-yl)thio)-N-(3,4-dimethoxyphenyl)acetamide], the IC50 falls from 8.37 µM to 0.265 µM (32-fold).

O=C(CSc1nc2cnc(Cl)cc2[nH]1)Nc1cccc(O)c1 [Compound 25, 2-((6-Chloro-1H-imidazo[4,5-c]pyridin-2-yl)thio)-N-(3-hydroxyphenyl)acetamide] and O=C(CSc1nc2cnc(Cl)cc2[nH]1)Nc1ccc(O)cc1 [Compound 33, 2-((6-chloro-1H-imidazo[4,5-c]pyridin-2-yl)thio)-N-(4-hydroxyphenyl)acetamide] are within 1.5-fold of each other in IC50: 7.93 µM for the first, 7.92 µM for the second.

First: COc1ccc(NC(=O)CSc2nc3cnc(Cl)cc3[nH]2)cc1F [Compound 27, 2-((6-Chloro-1H-imidazo[4,5-c]pyridin-2-yl)thio)-N-(3-fluoro-4-methoxyphenyl)acetamide]
Second: COc1ccc(NC(=O)CSc2nc3cnc(Cl)cc3[nH]2)cc1OC(F)(F)F [Compound 35, 2-((6-chloro-1H-imidazo[4,5-c]pyridin-2-yl)thio)-N-(4-methoxy-3-(trifluoromethoxy)phenyl)acetamide]
The IC50 of the first is 100-fold lower: 0.4 µM for the first, 40.7 µM for the second.

First: O=C(CSc1nc2cc(Cl)ncc2[nH]1)Nc1ccc(OC(F)F)cc1 [Compound 40, 2-((6-Chloro-3H-imidazo[4,5-c]pyridin-2-yl)thio)-N-(4-(difluoromethoxy)phenyl)acetamide]
Second: COc1ccc(NC(=O)CSc2nc3cc(Cl)ncc3[nH]2)cn1 [Compound 72, 2-((6-chloro-3H-imidazo[4,5-c]pyridin-2-yl)thio)-N-(6-methoxypyridin-3-yl)acetamide]
The IC50 of the first is 10-fold higher: 33.6 µM for the first, 3.29 µM for the second. The second is the more potent here.

Compared with COc1c(F)cc(NC(=O)CSc2nc3cnc(C(F)(F)F)cc3[nH]2)cc1F [Compound 44, N-(3,5-Difluoro-4-methoxyphenyl)-2-((6-(trifluoromethyl)-3H-imidazo[4,5-c]pyridin-2-yl)thio)acetamide], O=C(CSc1nc2cc(C(F)(F)F)ncc2[nH]1)Nc1ccc(OC(F)(F)F)c(O)c1 [Compound 61, N-(3-Hydroxy-4-(trifluoromethoxy)phenyl)-2-((6-(trifluoromethyl)-3H-imidazo[4,5-c]pyridin-2-yl)thio)acetamide] is 2.2-fold higher in IC50: 10.2 µM for the first, 22.6 µM for the second.

First: COc1ccc(NC(=O)CSc2nc3cnc(Cl)c(C)c3[nH]2)cc1O [Compound 49, 2-((6-Chloro-7-methyl-1H-imidazo[4,5-c]pyridin-2-yl)thio)-N-(3-hydroxy-4-methoxyphenyl)acetamide]
Second: COc1ccc(NC(=O)CSc2nc3cnc(Cl)c(C)c3[nH]2)cc1F [Compound 50, 2-((6-Chloro-7-methyl-1H-imidazo[4,5-c]pyridin-2-yl)thio)-N-(3-fluoro-4-methoxyphenyl)acetamide]
The IC50 of the first is 8.4-fold lower: 0.667 µM for the first, 5.63 µM for the second.

Cc1c(Cl)ncc2nc(SCC(=O)Nc3ccc(F)c(O)c3)[nH]c12 [Compound 51, 2-((6-Chloro-7-methyl-1H-imidazo[4,5-c]pyridin-2-yl)thio)-N-(4-fluoro-3-hydroxyphenyl)acetamide] and COc1ccc(NC(=O)CSc2nc3cnc(Cl)c(C)c3[nH]2)cc1OC [Compound 52, 2-((6-Chloro-7-methyl-1H-imidazo[4,5-c]pyridin-2-yl)thio)-N-(3,4-dimethoxyphenyl)acetamide] are within 1.5-fold of each other in IC50: 1.27 µM for the first, 1.14 µM for the second.

First: COc1cc2nc(NC(=O)CSc3nc4cc(Cl)ncc4[nH]3)sc2cc1OC [Compound 54, 2-((6-Chloro-3H-imidazo[4,5-c]pyridin-2-yl)thio)-N-(5,6-dimethoxybenzo[d]thiazol-2-yl)acetamide]
Second: O=C(CSc1nc2cc(Cl)ncc2[nH]1)Nc1nc2ccccc2s1 [Compound 62, N-(Benzo[d]thiazol-2-yl)-2-((6-chloro-3H-imidazo[4,5-c]pyridin-2-yl)thio)acetamide]
The IC50 of the first is 1.9-fold lower: 5.73 µM for the first, 10.9 µM for the second. The first is the more potent here.

COc1ccc(NC(=O)CSc2nc3cc(C#N)ncc3[nH]2)cc1O [Compound 67, 2-((6-Cyano-3H-imidazo[4,5-c]pyridin-2-yl)thio)-N-(3-hydroxy-4-methoxyphenyl)acetamide] and N#Cc1cc2nc(SCC(=O)Nc3ccc(F)c(O)c3)[nH]c2cn1 [Compound 69, 2-((6-Cyano-3H-imidazo[4,5-c]pyridin-2-yl)thio)-N-(4-fluoro-3-hydroxyphenyl)acetamide] are within 1.5-fold of each other in IC50: 0.179 µM for the first, 0.216 µM for the second.

Going from COc1ccc(NC(=O)CS(=O)(=O)c2nc3cnc(Cl)cc3[nH]2)cc1F [Compound 70, 2-((6-chloro-1H-imidazo[4,5-c]pyridin-2-yl)sulfonyl)-N-(3-fluoro-4-methoxyphenyl)acetamide] to COc1ccc(NC(=O)CSc2nc3cc(Cl)ncc3[nH]2)cc1N [Compound 82, N-(3-Amino-4-methoxyphenyl)-2-((6-chloro-3H-imidazo[4,5-c]pyridin-2-yl)thio)acetamide], the IC50 falls from 30.2 µM to 6.02 µM (5-fold). The second is the more potent here.

Cc1c(C#N)ncc2[nH]c(SCC(=O)Nc3ccc(F)c(O)c3)nc12 [Compound 79, 2-((6-Cyano-7-methyl-3H-imidazo[4,5-c]pyridin-2-yl)thio)-N-(4-fluoro-3-hydroxyphenyl)acetamide] gave an IC50 of 6.52 µM.
